Measured values taken from patent US20200024223A1, “CRYSTALLINE SALTS OF (4S,4AS,5AR,12AS)-4-DIMETHYLAMINO-3,10,12,12A-TETRAHYDROXY-7-[(METHOXY(METHYL)AMINO)-METHYL]-1,11-DIOXO-1,4,4A,5,5A,6,11,12A-OCTAHYDRO-NAPHTHACENE-2-CARBOXYLIC ACID AMIDE AND METHODS OF USING THE SAME” (priority 2011, published 2020).
Converted amounts (≈) assume the structure as drawn. Like-named read-outs stand apart in the source and are kept apart here.

What was measured:
[1] = Storage stability by HPLC-UV (chemical purity, β-isomer content, total impurity content); assay type: physicochemical
Description: The lower the β-isomer content, the higher the chemical purity of the salt. The β-isomer content is measured after synthesis of the salt and compared with the measured β-isomer content after storage for a designated period of time.
Another measure of chemical purity is defined by the content of other related impurities, by-products or degradation products of the salt, which represents the […] of the compound. The lower the content of total impurities as measured by HPLC, generally, by HPLC-UV, the higher the chemical purity of the salt. The total impurity content is measured after synthesis of the salt and compared with the measured total impurity content after storage for a designated period of time.
In order to determine the stability of Crystalline Mono Hydrochloride Salt, the β-isomer content of the salt was determined by HPLC-UV analysis and compared to the β-isomer content calculated after the salt was stored in an amber glass vial for approximately 75 days at ambient conditions.
The β-isomer content of Comparative Example 2 was also determined by HPLC-UV analysis at 0 days and compared to the β-isomer content calculated after the compound was stored in a clear glass vial for approximately 75 days at ambient conditions.
HPLC-UV and XRPD analysis were conducted on samples of Crystalline Mono Hydrochloride Salt, Crystalline Mesylate Salt and Crystalline Sulfate Salt at 0 days and after storage for 7 days at 40° C. and 75% RH. FIGS. 1, 4 and 7 show the XRPD analysis of the Crystalline Mono Hydrochloride Salt, Crystalline Mesylate Salt and Crystalline Sulfate Salt at 0 days and after storage at 40° C. and 75% RH with the graphs overlaid for comparison.
The results of HPLC-UV analysis for the same samples of Crystalline Mesylate Salt and Crystalline Sulfate Salt are shown in Table 4.

[2] = Differential scanning calorimetry (DSC); assay type: physicochemical; settings: after synthesis
Description: DSC analysis as disclosed herein was collected on a TA Instruments Q2000 equipped with a 50 position auto-sampler. The instrument was calibrated for energy and temperature using certified indium. The calibration for thermal capacity was carried out using sapphire. […] A nitrogen purge at 50 ml.min^−1 was maintained over the sample. The instrument control software used was Advantage for Q Series v2.8.0.392 and Thermal Advantage v4.8.3 and the data was analyzed using Universal Analysis v4.4A. […] The observed apparent weight loss is due to instability of the machine. Table 5 below compares the DSC and TGA analysis of the crystalline salts of the present invention with the crystalline free base and Comparative Example 1.

[3] = Thermo-gravimetric analysis (TGA); assay type: physicochemical
Description: TGA is used to determine changes in weight in relation to change in temperature, which may reveal degradation of the compound and the presence of solvates or hydrates. TGA analysis as disclosed herein was collected on a TA Instruments Q500 TGA equipped with a 16 position auto-sampler. The instrument was temperature calibrated using certified Alumel and Nickel. […] A nitrogen purge at 60 ml.min^−1 was maintained over the sample. The instrument control and data analysis software used was Advantage for Q Series v2.8.0.392 and Thermal Advantage v4.8.3 and the data was analyzed using Universal Analysis v4.4A. […] The observed apparent weight loss is due to instability of the machine. Table 5 below compares the DSC and TGA analysis of the crystalline salts of the present invention with the crystalline free base and Comparative Example 1.

Salmonella spp. = experiment: In vitro MIC testing, antibacterial spectrum of activity; assay type: cell-based
S. aureus RN450-1 [4] = experiment: S. aureus Thigh Wound Infection Model; assay type: in vivo; settings: Staphylococcus aureus, RN4501, in Mus musculus, iv, read-out: S. aureus RN450-1 Thigh ED50
Description: Bacterial cultures were prepared by growing S. aureus RN450-1 overnight and diluting with sterile PBS. An injection of 100 μL of ˜1×10^6 CFU/mL in sterile PBS was injected into the thigh. Four groups of mice for each drug received doses of 0.33, 1, 3, or 9 mg/kg intravenously at 2 and 6 hours post infection. An additional group of untreated mice served as a negative control group. At 24 hours post infection, the thighs were collected aseptically, homogenized, and plated to enumerate bacterial load per thigh. Data are reported as ED50 values.

S. pneumoniae PBS 1339 = settings: neutropenic CD-1 male mice, single IV dose 2 hours post infection, survival at 72 hours post infection
E. coli = experiment: In vitro MIC testing, antibacterial spectrum of activity; assay type: cell-based
S. aureus RN450-1 [5] = experiment: S. aureus Systemic Intraperitoneal Challenge (IPC) Model; assay type: in vivo; settings: CD-1 male mice, single SC dose 1 hour post infection, survival at 48 hours post infection
Description: Bacterial cultures were prepared by growing tetracycline-sensitive S. aureus RN450-1 overnight, then diluting with sterile phosphate-buffered saline (PBS). For each experiment, a total of 30 mice were infected by injection into the intraperitoneal cavity with 500 μl of 7.5×10^7 CFU in 5% sterile bacteriological mucin. […] The doses were administered subcutaneously (SC) at 1 hour post infection. An additional infected group of 5 mice was included as a negative control (untreated) group. For all studies but one, a positive control group(s) was included (e.g., doxycycline, minocycline, or ciprofloxacin). Mice were monitored for survival for up to 7 days. […] PD50 (protective dose, 50%) is the dose required to achieve 50% survival. The PD50 values reported are a mean of 2-3 independent experiments for each drug tested.

[6] = test system: Carrageenan-Induced Rat Footpad Edema; experiment: Rat Carrageenan-Induced Footpad Edema inflammation model; assay type: in vivo; settings: 3 hours post carrageenan
Description: Immediately following the carrageenan injection and 3 hours post-injection, the hind paw volume was measured with a digital water plethysmometer. Results were calculated as a percent change in paw volume over the 3 hours, divided by the baseline paw volume, and then adjusted for the mean percent inflammation in the untreated controls, and are presented in Table 10.

[7] = test system: Prevotella melaninogenica; experiment: In vitro MIC testing against anaerobic bacteria; assay type: cell-based
[8] = test system: Streptococcus constellatus; experiment: In vitro MIC testing against anaerobic bacteria; assay type: cell-based; settings: ATCC27823
E. faecium = experiment: In vitro MIC testing, antibacterial spectrum of activity; assay type: cell-based; settings: Enterococcus faecium, vancomycin-susceptible E. faecium
E. cloacae = experiment: as above; assay type: cell-based; settings: Enterobacter cloacae, 7 of 30 strains inhibited
Staphylococcus aureus = experiment: Inhibition of macromolecular synthesis in Staphylococcus aureus (whole-cell assay); assay type: cell-based; settings: S. aureus, at 8-fold the MIC
S. agalactiae = experiment: In vitro MIC testing, antibacterial spectrum of activity; assay type: cell-based; settings: Streptococcus agalactiae, S. agalactiae
S. pyogenes = experiment: as above; assay type: cell-based; settings: Streptococcus pyogenes, S. pyogenes
S. pneumoniae = experiment: as above; assay type: cell-based, Streptococcus pneumoniae; settings: Streptococcus pneumoniae, PSSP, all but 3 strains inhibited
[9] = test system: Streptococcus spp. [Group C]; experiment: as above; assay type: cell-based; settings: Streptococcus, Group C streptococci
[10] = Escherichia coli, read-out: MIC50
[11] = Escherichia coli, read-out: MIC90

With `CON(C)Cc1ccc(O)c2c1C[C@H]1C[C@H]3[C@H](N(C)C)C(O)=C(C(N)=O)C(=O)[C@@]3(O)C(O)=C1C2=O` [Comparative Example 1, (4S,4aS,5aR,12aS)-4-dimethylamino-3,10,12,12a-tetrahydroxy-7-[(methoxy(methyl)amino)-methyl]-1,11-dioxo-1,4,4a,5,5a,6,11,12a-octahydro-naphthacene-2-carboxylic acid amide] the “β-isomer content at 0 days” value ([1]; 0 days) was 3.6 % peak area, the “β-isomer content after storage” value ([1]; 48 hours at about 40° C. and about 75% RH) was 31.7 % peak area and the “β-isomer content after storage” value ([1]; 36 days at about 25° C. and about 60% RH) was 8.7 % peak area. For the same compound, the “total impurity content at 0 days” value ([1]; HPLC-UV, 0 days) was 4.2 % peak area, the “total impurity content after storage” value ([1]; about 2 days at about 40° C. and about 75% RH) was 34.6 % peak area and the “Differential Scanning Calorimetry” value [2] was “Broad endothermic”. For the same compound, the TGA weight loss ([3]; from about 30° C. to about 106° C.) was 7% weight loss from about 30 °C to, the TGA weight loss ([3]; from about 106° C. to about 200° C.) was 8% weight loss from about 106 °C and the TGA weight loss ([3]; from about 200° C. to about 300° C.) was 23% weight loss from about 200 °C.
Work on `C[C@H]1c2cccc(O)c2C(=O)C2=C(O)[C@]3(O)C(=O)C(C(N)=O)=C(O)[C@@H](N(C)C)[C@@H]3[C@@H](O)[C@@H]21` [Doxycycline, doxycycline] yielded an MIC50 (Salmonella spp.) of 2 mg/L (≈ 4.5 µM), an MIC90 (Salmonella spp.) of 32 mg/L (≈ 72 µM) and an ED50 (S. aureus RN450-1 [4]) of 8.31 mg/kg. For the same compound, the “S. pneumoniae PBS1339 RTI PD50” value (S. pneumoniae PBS 1339) was 7.18 mg/kg, the “MIC Range” value (E. coli) was 64-64 μg/mL and the MIC (E. coli; Escherichia coli) was 64 mg/L (≈ 144 µM). The MIC50 (E. coli; [10]) was 2 mg/L (≈ 4.5 µM), the MIC90 (E. coli; [11]) was 32 mg/L (≈ 72 µM) and the “S. aureus RN450-1 IPC PD50” value (S. aureus RN450-1 [5]) was 0.30 mg/kg. For the same compound, the “Mean Percent Inflammation Compared to Untreated Controls” value ([6]; 75 mg/kg IP) was 68% and the “Mean Percent Inflammation Compared to Untreated Controls” value ([6]; 100 mg/kg IP) was 36%.
In the case of `CN(C)c1ccc(O)c2c1C[C@H]1C[C@H]3[C@H](N(C)C)C(O)=C(C(N)=O)C(=O)[C@@]3(O)C(O)=C1C2=O` [Minocycline, minocycline], the MIC90 (Salmonella spp.) is reported as 8 mg/L (≈ 17.5 µM), the “MIC Range” value (E. coli) is reported as 8 to 16 µg/mL and the MIC (E. coli; Escherichia coli) is reported as 16 mg/L (≈ 35 µM). For the same compound, the MIC50 (E. coli; [10]) was 1 mg/L (≈ 2.19 µM), the MIC90 (E. coli; [11]) was 8 mg/L (≈ 17.5 µM) and the “S. aureus RN450-1 IPC PD50” value (S. aureus RN450-1 [5]) was 0.03 mg/kg. The MIC [7] was 16 mg/L (≈ 35 µM), the “Mean Percent Inflammation Compared to Untreated Controls” value ([6]; 25 mg/kg IP) was 47% and the “Mean Percent Inflammation Compared to Untreated Controls” value ([6]; 50 mg/kg IP) was 33%. For the same compound, the “Mean Percent Inflammation Compared to Untreated Controls” value ([6]; 75 mg/kg IP) was 54%, the “Mean Percent Inflammation Compared to Untreated Controls” value ([6]; 100 mg/kg IP) was 21% and the MIC [8] was 16 mg/L (≈ 35 µM).
In the case of `CON(C)Cc1ccc(O)c2c1C[C@H]1C[C@H]3[C@H](N(C)C)C(O)=C(C(N)=O)C(=O)[C@@]3(O)C(O)=C1C2=O` [The Active, (4S,4aS,5aR,12aS)-4-dimethylamino-3,10,12,12a-tetrahydroxy-7-[(methoxy(methyl)amino)-methyl]-1,11-dioxo-1,4,4a,5,5a,6,11,12a-octahydro-naphthacene-2-carboxylic acid amide], the MIC (E. faecium; 17 strains inhibited) is reported as ≤ 0.5 mg/L, the MIC (E. faecium; remainder of the isolates) is reported as 16 to 32 mg/L (≈ 32.8 to 65.6 µM) and the MIC50 (Salmonella spp.) is reported as 16 mg/L (≈ 32.8 µM). For the same compound, the ED50 (S. aureus RN450-1 [4]) was 8.23 mg/kg, the “S. pneumoniae PBS1339 RTI PD50” value (S. pneumoniae PBS 1339) was 4.66 mg/kg and the MIC50 (E. coli) was 16 mg/L (≈ 32.8 µM). The MIC90 (E. coli) was > 64 mg/L, the MIC50 (E. coli; Escherichia coli, E. coli (33 isolates), read-out: MIC50) was 16 mg/L (≈ 32.8 µM) and the “S. aureus RN450-1 IPC PD50” value (S. aureus RN450-1 [5]) was 0.25 mg/kg. For the same compound, the MIC (E. cloacae) was ≤ 1 mg/L, the “inhibition for the synthesis of cell wall, DNA, RNA and lipid components” value (Staphylococcus aureus) was “less than 20%” and the “Mean Percent Inflammation Compared to Untreated Controls” value ([6]; 1 mg/kg IP) was 103%. For the same compound, the “Mean Percent Inflammation Compared to Untreated Controls” value ([6]; 5 mg/kg IP) was 78%, the “Mean Percent Inflammation Compared to Untreated Controls” value ([6]; 10 mg/kg IP) was 65% and the “Mean Percent Inflammation Compared to Untreated Controls” value ([6]; 25 mg/kg IP) was 59%. The “Mean Percent Inflammation Compared to Untreated Controls” value ([6]; 50 mg/kg IP) was 52%, the “Mean Percent Inflammation Compared to Untreated Controls” value ([6]; 75 mg/kg IP) was 56% and the “Mean Percent Inflammation Compared to Untreated Controls” value ([6]; 100 mg/kg IP) was 53%. The “Mean Percent Inflammation Compared to Untreated Controls” value ([6]; 150 mg/kg IP) was 26%, the MIC (S. agalactiae; 7 strains inhibited) was ≤ 0.25 mg/L and the MIC (S. agalactiae; remainder of the isolates) was 16 to 32 mg/L (≈ 32.8 to 65.6 µM). The MIC (S. pyogenes; all but 6 strains inhibited) was ≤ 0.25 mg/L, the MIC (S. pyogenes; elevated MICs for 5 strains) was ≥ 4 mg/L and the MIC (S. pneumoniae) was ≤ 0.25 mg/L. For the same compound, the MIC ([9]; 19 strains inhibited) was ≤ 0.25 mg/L and the MIC ([9]; remainder of the isolates) was 4 to 16 mg/L (≈ 8.2 to 32.8 µM).
